Source: ChEMBL document CHEMBL1129525 (J Med Chem, 1996)
pIC50: −log10 of the molar value.

Tests used:
[1] = system: Toxoplasma gondii; experiment: Inhibition of Toxoplasma gondii cell growth; type: functional, organism-based
[2] = target: T1, Dihydrofolate reductase (Pneumocystis carinii, UniProt P16184)
T1 sequence (P16184 whole entry): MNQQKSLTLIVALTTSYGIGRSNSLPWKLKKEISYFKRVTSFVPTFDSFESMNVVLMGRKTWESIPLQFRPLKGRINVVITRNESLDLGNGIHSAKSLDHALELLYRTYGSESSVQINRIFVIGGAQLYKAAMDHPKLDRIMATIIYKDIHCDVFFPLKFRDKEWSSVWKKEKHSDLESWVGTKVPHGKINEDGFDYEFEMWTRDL
Description: Inhibitory activity against Pneumocystis carinii dihydrofolate reductase

[3] = target: T2, Dihydrofolate reductase (Rattus norvegicus, UniProt Q920D2)
T2 sequence (Q920D2 whole entry): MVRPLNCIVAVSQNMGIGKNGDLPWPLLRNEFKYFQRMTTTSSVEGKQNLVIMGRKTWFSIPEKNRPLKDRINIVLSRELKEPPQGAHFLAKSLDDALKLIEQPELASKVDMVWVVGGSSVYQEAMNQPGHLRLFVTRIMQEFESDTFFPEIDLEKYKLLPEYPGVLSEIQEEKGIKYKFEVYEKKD
Description: Inhibitory activity against rat liver dihydrofolate reductase

[4] = target: T3, Bifunctional dihydrofolate reductase-thymidylate synthase (Toxoplasma gondii, UniProt Q07422)
T3 sequence (Q07422 whole entry): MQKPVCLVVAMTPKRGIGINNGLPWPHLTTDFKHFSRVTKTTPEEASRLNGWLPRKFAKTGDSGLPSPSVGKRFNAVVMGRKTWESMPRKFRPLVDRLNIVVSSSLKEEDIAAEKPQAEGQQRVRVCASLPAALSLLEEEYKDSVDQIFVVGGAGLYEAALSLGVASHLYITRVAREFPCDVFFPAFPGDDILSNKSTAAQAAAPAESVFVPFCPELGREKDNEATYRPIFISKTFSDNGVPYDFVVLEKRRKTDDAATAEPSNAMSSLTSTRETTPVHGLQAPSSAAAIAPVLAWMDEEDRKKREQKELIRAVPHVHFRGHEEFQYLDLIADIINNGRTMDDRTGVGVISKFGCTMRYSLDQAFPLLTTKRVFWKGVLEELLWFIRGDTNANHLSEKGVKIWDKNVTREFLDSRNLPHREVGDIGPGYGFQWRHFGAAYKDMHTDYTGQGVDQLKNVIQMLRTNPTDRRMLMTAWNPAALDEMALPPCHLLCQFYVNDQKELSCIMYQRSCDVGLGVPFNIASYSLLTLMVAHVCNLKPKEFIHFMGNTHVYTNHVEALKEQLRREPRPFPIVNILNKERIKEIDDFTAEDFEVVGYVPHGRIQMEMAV
Description: Inhibitory activity against Toxoplasma gondii dihydrofolate reductase

SMILES | pIC50 [1] | pIC50 [2] | pIC50 [3] | pIC50 [4]
Nc1nc(N)c2nc(CSc3cccc4ccccc34)cnc2n1 | 5.52 | 5.38 | 5.09 | 5.15
COc1ccc(OC)c(N(C)Cc2cnc3nc(N)nc(N)c3n2)c1 | 5.80 | 5.41 | 6.33 | 6.68
COc1cc(OC)cc(N(C)Cc2cnc3nc(N)nc(N)c3c2C)c1 | 8.00 | 7.30 | 7.89 | 8.40
Nc1nc(N)c2nc(CNc3ccc(Cl)cc3)cnc2n1 | 6.15 | 5.82 | 6.52 | 6.23
Cc1c(CSc2ccc(Cl)cc2)cnc2nc(N)nc(N)c12 | 6.52 | 6.44 | 6.43 | 7.05
Nc1nc(N)c2cc(CNc3cccc4ccccc34)cnc2n1 | 6.10 | 6.59 | 6.64 | 6.82
COc1ccc(OC)c(NCc2cnc3nc(N)nc(N)c3c2C)c1 | 6.70 | 7.96 | 8.00 | 7.85
COc1ccc(C(F)(F)F)cc1N(C)Cc1cnc2nc(N)nc(N)c2c1C | 6.70 | 7.03 | 6.64 | 7.42
Nc1nc(N)c2cc(CNc3ccc(Cl)cc3)ccc2n1 | 8.00 | 6.22 | 7.14 | 7.12
COc1ccc(SCc2cnc3nc(N)nc(N)c3n2)cc1 | 5.52 | 4.76 | 4.99 | 4.85
Nc1nc(N)c2cc(CNc3cccc4ccccc34)ccc2n1 | 7.22 | 6.68 | 7.26 | 7.57
Cc1c(CN(C)c2cccc3c2CCCC3)cnc2nc(N)nc(N)c12 | 7.70 | 6.82 | 6.85 | 7.80
Cc1cc(Cl)ccc1NCc1ccc2nc(N)nc(N)c2c1 | 6.70 | 6.48 | 7.64 | 7.48
COc1ccc(SCc2cnc3nc(N)nc(N)c3c2C)cc1OC | 5.30 | 6.82 | 6.74 | 7.52
Cc1cccc(SCc2cnc3nc(N)nc(N)c3c2C)c1 | 6.70 | 6.77 | 6.48 | 7.19
COc1ccc(SCc2cnc3nc(N)nc(N)c3n2)cc1OC | 5.30 | 4.24 | 4.44 | 4.63
COc1cc(NCc2cnc3nc(N)nc(N)c3c2)cc(OC)c1OC | 4.82 | – | 6.09 | 6.89
Cc1c(CCc2cccc3ccccc23)cnc2nc(N)nc(N)c12 | 7.00 | 7.19 | 6.87 | 7.59
COc1cccc(SCc2cnc3nc(N)nc(N)c3n2)c1 | 5.30 | 5.00 | 5.11 | 5.80

SMILES | pIC50 [1] | pIC50 [2] | pIC50 [3] | pIC50 [4]
COc1ccc(NCc2cnc3nc(N)nc(N)c3c2C)c(C)c1 | 6.22 | 6.77 | 7.54 | 8.14
Cc1ccc(C)c(NCc2cnc3nc(N)nc(N)c3c2C)c1 | 8.00 | 7.52 | 6.92 | 7.80
COc1ccc(OC)c(NCc2cnc3nc(N)nc(N)c3n2)c1 | 5.30 | 5.21 | 4.64 | 5.16
Cc1c(CNc2ccc(Cl)cc2)cnc2nc(N)nc(N)c12 | 6.82 | 6.96 | 7.14 | 7.49
Cc1ccc(SCc2cnc3nc(N)nc(N)c3n2)cc1 | 5.30 | – | 4.59 | 4.82
COc1ccc(OC)c(NCc2ccc3nc(N)nc(N)c3c2)c1 | 6.22 | 6.12 | 6.34 | 6.85
COc1cc(NCc2cnc3nc(N)nc(N)c3n2)cc(OC)c1OC | 4.96 | 5.15 | 5.72 | 6.00
COc1cc(NCc2cnc3nc(N)nc(N)c3n2)cc(C(F)(F)F)c1 | 6.00 | 6.17 | 5.72 | 6.05
Nc1nc(N)c2cc(CNc3ccc(Cl)cc3)cnc2n1 | 5.40 | 6.01 | 6.14 | 6.52
COc1ccc(C(F)(F)F)cc1NCc1cnc2nc(N)nc(N)c2n1 | 5.70 | 4.68 | 4.68 | 4.97
COc1cc(NCc2cnc3nc(N)nc(N)c3c2C)cc(OC)c1OC | 6.00 | – | 8.27 | –
COc1ccc(C)c(NCc2cnc3nc(N)nc(N)c3n2)c1 | 6.00 | < 5.52 | < 5.52 | 6.36
COc1ccc(N(C)Cc2cnc3nc(N)nc(N)c3c2C)c(OC)c1 | 6.52 | 6.46 | 6.64 | 7.28
Cc1c(CNc2cccc3ccccc23)cnc2nc(N)nc(N)c12 | 7.92 | 6.66 | 6.96 | 6.62
COc1ccc(SCc2cnc3nc(N)nc(N)c3c2C)cc1 | 6.52 | 6.25 | – | –
COc1cc(NCc2cnc3nc(N)nc(N)c3n2)cc(OC)c1 | 6.00 | 6.02 | 6.06 | 6.96
COc1cc(NCc2cnc3nc(N)nc(N)c3c2C)cc(C(F)(F)F)c1 | 6.70 | 7.70 | 7.77 | 7.74
Cc1c(CSc2cccc(Cl)c2)cnc2nc(N)nc(N)c12 | 6.82 | 7.17 | 6.72 | 7.05
Cc1ccc(SCc2cnc3nc(N)nc(N)c3c2C)cc1 | 6.52 | 6.28 | 6.30 | 7.24

SMILES | pIC50 [1] | pIC50 [2] | pIC50 [3] | pIC50 [4]
Nc1nc(N)c2nc(CNc3cccc4ccccc34)cnc2n1 | 6.60 | – | 5.90 | 7.12
Nc1nc(N)c2nc(CCc3cccc4ccccc34)cnc2n1 | 6.00 | – | 4.22 | 6.09
COc1cccc(SCc2cnc3nc(N)nc(N)c3c2C)c1 | 6.70 | 6.47 | 6.22 | 6.96
Nc1nc(N)c2nc(CSc3ccccc3)cnc2n1 | 5.00 | 5.02 | – | –
COc1ccc(N(C)Cc2cnc3nc(N)nc(N)c3c2C)cc1OC | 6.82 | 7.54 | 8.28 | 8.54
COc1ccc(C)cc1NCc1cnc2nc(N)nc(N)c2c1C | 7.30 | 7.17 | 6.80 | 7.82
COc1ccc(NCc2cnc3nc(N)nc(N)c3c2C)c(OC)c1 | 6.70 | 7.04 | 7.21 | 8.00
COc1cccc(C)c1NCc1cnc2nc(N)nc(N)c2c1C | 6.52 | 6.00 | 6.49 | 7.00
COc1ccc(C(F)(F)F)cc1NCc1cnc2nc(N)nc(N)c2c1C | 7.70 | 7.36 | 7.70 | 7.66
COc1ccc(OC)c(N(C)Cc2cnc3nc(N)nc(N)c3c2C)c1 | 6.70 | 6.15 | 6.34 | 7.55
Cc1c(CNc2cccc3c2CCCC3)cnc2nc(N)nc(N)c12 | 7.22 | 7.00 | 6.89 | 7.59
COc1ccc(NCc2cnc3nc(N)nc(N)c3c2C)cc1OC | 6.22 | 7.29 | 8.19 | 8.57
COc1ccc(OC)c(CCc2cnc3nc(N)nc(N)c3c2C)c1 | 7.00 | 6.47 | 6.11 | 8.10
Cc1cccc(SCc2cnc3nc(N)nc(N)c3n2)c1 | 5.40 | 4.67 | 5.07 | 5.74
COc1ccc(OC)c(CCc2cnc3nc(N)nc(N)c3n2)c1 | 5.30 | 4.95 | 4.63 | 5.27
Cc1c(CSc2ccccc2)cnc2nc(N)nc(N)c12 | 6.70 | 6.36 | 6.37 | 7.47
Nc1nc(N)c2nc(CSc3cccc(Cl)c3)cnc2n1 | < 5.00 | 4.37 | 4.58 | 5.24
COc1ccc(OC)c(Cc2cnc3nc(N)nc(N)c3c2C)c1 [PIRITREXIM] | 7.70 | – | – | –
CCc1nc(N)nc(N)c1-c1ccc(Cl)cc1 [PYRIMETHAMINE] | 6.40 | – | – | –
